{"source": "patent US8796302B2", "about": "(priority 2004, dated 2014)", "key": {"PGE2": {"system": "PGE2", "test": "PGE2 release (EIA) after LPS", "assay_type": "cell-based, rat"}, "CD-1 mice given LPS/GalN [1]": {"system": "CD-1 mice given LPS/GalN", "test": "Survival in LPS/GalN endotoxic shock", "assay_type": "in vivo, mouse", "settings": "for Rate of survival % / No. of animals survived: 12 hrs; for Rate of survival: 30 min before and 2, 4 hr after LPS/GalN; for Rate of survival / Survived animal: 12 hours", "procedure": "Animal studies were performed in accordance with National Institutes of Health Guidelines and with the approval of the Institute's Animal Care and Use Committee, and followed NIH guidelines. Male, CD-1 mice (6-week-old) were purchased from Charles River laboratories, fed on a standard diet and with tap water ad libitum for two weeks. Environmental conditions were standardized, including a room temperature of 21° C. and 12 hours artificial lighting. Mice were fasted 12 hrs before use.\n(§1) Endotoxic shock was induced in the mice by administering a single intraperitoneal dose of lipopolysaccharide/D-(+/−)Glactosomine (Sigma, St. Louis, Mo.) (LPS/GalN) (20 μg/700 mg/kg) in saline. To test whether DM has protective effects on septic shock, varying concentrations (6.25, 12.5 and 25 mg/kg) of DM were injected into the mice subcutaneously 30 min before, and 2, and 4 hr after the injection of LPS/GalN. Control mice received the same amount of saline. At different time points, the animals were killed, and serum and liver samples were collected.\n(§2) To examine the therapeutic effects of DM, animals were treated with […] DM at 30 min before LPS/GalN injection, and 30, 60 and 120 min after LPS/GalN administration. Serum ALT was measured to evaluate the therapeutic effects of the DM. Survival rate was evaluated within 12 hours after endotoxin administration.\nEndotoxic shock were induced in mice in the same was as Example 16. The mice were given LPS/GalN (20 μg/700 mg/kg, ip) with or without the administration of DM (10 mg/kg, 1 μg/kg and 100 pg/kg, s.c.) 30 min before LPS/GalN. The survival rate of the animals was evaluated 12 hrs after LPS/GalN treatment."}, "CD-1 mice given LPS/GalN [2]": {"system": "CD-1 mice given LPS/GalN", "test": "Serum ALT in LPS/GalN endotoxic shock", "assay_type": "in vivo, mouse", "settings": "for serum ALT level: 12 hrs after LPS/GalN", "procedure": "as §1, §2\n(§3) Serum alanine aminotransferase (ALT) activity was assayed as a marker of hepatocellular death using a commercially available kit (Infinite ALT, Sigma, St. Louis, Mo.). A portion of the liver was fixed in 10% neutral formalin, processed by standard histological techniques, stained with hematoxylin and eosin, and examined for morphological evidence of liver injury."}, "CD-1 mice given LPS/GalN [3]": {"system": "CD-1 mice given LPS/GalN", "test": "Liver histology in LPS/GalN endotoxic shock", "assay_type": "in vivo, mouse", "procedure": "as §3\nSections of the mice livers were stained with hematoxylin and eosin, and photomicrographs were taken at 100× magnification."}, "[4]": {"system": "neurons in neuron-enriched cultures", "test": "MAP-2 / TH immunostaining morphology of neuron-enriched cultures", "assay_type": "cell-based, rat", "settings": "7 days exposure; media conditioned 48 hours; VPA 0.6 mM", "procedure": "Neuron-enriched cultures were immunostained with MAP-2 for morphological examination. FIGS. 40A-40D show morphological features of neuron-enriched cultures were examined after incubation with vehicle (A), 0.6 mM VPA (B), ACM (C) or ACM-VPA (D) for 7 days and then immunocytostaining with MAP-2 antibody.\nThe immunostaining was carried out according to the following procedure. Formaldehyde (3.7%)-fixed cultures were treated with 1% hydrogen peroxide (10 min) followed by sequential incubation with blocking solution (30 min), primary antibody (overnight, 4° C.), biotinylated secondary antibody (2 hours), and ABC reagents (40 min) (Vector Laboratories, Burlingame, Calif.). The color development was achieved by the addition of 3,3′-diaminobenzidine. For morphological analysis, the images were recorded with an inverted microscope (Nikon, Tokyo, Japan) connected to a charge-coupled device camera (DAGE-MTI, Michigan City, Ind.) operated with the MetaMorph software (Universal Imaging Corporation, Downingtown, Pa.). For visual counting of TH-IR neurons, nine representative areas per well of the 24-well plate were counted under the microscope at 100× magnification.\nTo specifically visualize morphological changes in DA neurons, we immunostained neuron-enriched cultures with anti-TH antibody. […]"}, "GDNF": {"system": "GDNF", "test": "GDNF mRNA (real-time PCR) in primary astroglia", "assay_type": "cell-based, rat", "settings": "VPA 0.6 mM", "procedure": "Rat primary astroglias were exposed to 0.6 in M VPA for various times ranging from 6 to 48 hours. Total RNA was extracted from cells by Tri reagent (Sigma) and purified with RNeasy columns (Qiagen, Valencia, Calif.). Expression of the selected genes was quantified using real-time RT-PCR analysis. Briefly, total RNA was reverse transcribed with MuLV reverse transcriptase and oligo-dT primers. The forward and reverse primers for selected genes were designed using Primer Express software. The SYBR green DNA PCR kit (Applied Biosystems, Foster City, Calif.) was used for real-time PCR analysis. The relative differences in expression between groups were expressed using cycle time (Ct) values and the relative differences between groups were expressed as relative increases setting the control as 100%. Assuming that the Ct value is reflective of the initial starting copy and that there is 100% efficacy, a difference of one cycle is equivalent to a two-fold difference in the starting copy."}}, "data": [{"smiles": "COc1ccc2c(c1)[C@@]13CCCC[C@H]1[C@@H](C2)N(C)CC3", "note": "[DM, d-3-methoxy-N-methylmorphinan]", "values": [{"measurement": "LPS-induced increase in the release of PGE2", "setting": "PGE2; DM 10^−5 M and 10^−14 M pretreatment", "value": "significantly decreased"}, {"measurement": "LPS-induced increase in the release of PGE2", "setting": "PGE2; DM 10^−10 M pretreatment", "value": "no significant reduction"}, {"measurement": "PGE2 production, post treatment", "setting": "PGE2; femtomolar DM after removal of LPS (20 ng/ml, 12 h), 24 h", "value": "reduction of NO and PGE2 production"}, {"measurement": "Rate of survival %", "setting": "CD-1 mice given LPS/GalN [1]; DM 100 pg/kg s.c. 30 min before LPS/GalN", "value": 76.6, "unit": "%"}, {"measurement": "No. of animals survived", "setting": "CD-1 mice given LPS/GalN [1]; DM 100 pg/kg s.c., 47 animals in group", "value": 36}, {"measurement": "Rate of survival %", "setting": "CD-1 mice given LPS/GalN [1]; DM 1 ug/kg s.c. 30 min before LPS/GalN", "value": 58.8, "unit": "%"}, {"measurement": "No. of animals survived", "setting": "CD-1 mice given LPS/GalN [1]; DM 1 ug/kg s.c., 17 animals in group", "value": 10}, {"measurement": "Rate of survival", "setting": "CD-1 mice given LPS/GalN [1]; DM 6.25 mg/kg", "value": 67, "unit": "%"}, {"measurement": "Rate of survival", "setting": "CD-1 mice given LPS/GalN [1]; DM 6.25 mg/kg, listed as Dextromethorphan", "value": 66.6, "unit": "%"}, {"measurement": "Survived animal", "setting": "CD-1 mice given LPS/GalN [1]; DM 6.25 mg/kg, n = 12", "value": 8}, {"measurement": "Rate of survival %", "setting": "CD-1 mice given LPS/GalN [1]; DM 10 mg/kg s.c. 30 min before LPS/GalN", "value": 84.6, "unit": "%"}, {"measurement": "No. of animals survived", "setting": "CD-1 mice given LPS/GalN [1]; DM 10 mg/kg s.c., 26 animals in group", "value": 22}, {"measurement": "Rate of survival", "setting": "CD-1 mice given LPS/GalN [1]; DM 12.5 mg/kg", "value": "about 90%"}, {"measurement": "Rate of survival", "setting": "CD-1 mice given LPS/GalN [1]; DM 12.5 mg/kg, listed as Dextromethorphan", "value": 89.3, "unit": "%"}, {"measurement": "Survived animal", "setting": "CD-1 mice given LPS/GalN [1]; DM 12.5 mg/kg, n = 56", "value": 50}, {"measurement": "Rate of survival", "setting": "CD-1 mice given LPS/GalN [1]; DM 25 mg/kg", "value": "about 90%"}, {"measurement": "Rate of survival", "setting": "CD-1 mice given LPS/GalN [1]; DM 25 mg/kg, listed as Dextromethorphan", "value": 91.6, "unit": "%"}, {"measurement": "Survived animal", "setting": "CD-1 mice given LPS/GalN [1]; DM 25 mg/kg, n = 12", "value": 11}, {"measurement": "protection against LPS/GalN-induced lethal shock", "setting": "CD-1 mice given LPS/GalN [1]; DM 30 min post LPS/GalN challenge", "value": "also observed"}, {"measurement": "serum ALT level", "setting": "CD-1 mice given LPS/GalN [2]; DM 12.5 mg/kg", "value": "about 25 % of LPS/GalN group"}, {"measurement": "serum ALT level", "setting": "CD-1 mice given LPS/GalN [2]; DM 25 mg/kg", "value": "about 25 % of LPS/GalN group"}, {"measurement": "time-dependent reduction of serum ALT level", "setting": "CD-1 mice given LPS/GalN [2]; DM 30 min pre-treatment and 30, 60, 120 min post-treatments", "value": "the later the DM treatment, the less protective"}, {"measurement": "liver histology (hematoxylin and eosin)", "setting": "CD-1 mice given LPS/GalN [3]; 100 pg/kg DM plus LPS/GalN", "value": "cell death is mild"}, {"measurement": "liver histology (hematoxylin and eosin)", "setting": "CD-1 mice given LPS/GalN [3]; 1 μg/kg DM plus LPS/GalN", "value": "hepatic congestion and cell death are obvious"}, {"measurement": "liver histology (hematoxylin and eosin)", "setting": "CD-1 mice given LPS/GalN [3]; 10 mg/kg DM plus LPS/GalN", "value": "hepatic congestion and cell death are mild"}, {"measurement": "liver pathological alterations (necrosis, apoptosis, swelling)", "setting": "CD-1 mice given LPS/GalN [3]; DM treatments, 12 hours after LPS/GalN", "value": "dramatically ameliorated"}]}, {"smiles": "CCCC(CCC)C(=O)O", "note": "[VPA, Valproic acid]", "values": [{"measurement": "neurite outgrowth (MAP-2 immunostaining)", "setting": "[4]", "value": "Much smaller effects"}, {"measurement": "GDNF mRNA levels", "setting": "GDNF; 12 hours, control as 100%", "value": "about 180%"}, {"measurement": "GDNF mRNA levels", "setting": "GDNF; 24 hours, control as 100%", "value": "~265", "unit": "%"}, {"measurement": "GDNF mRNA levels", "setting": "GDNF; 48 hours", "value": "back to the control value"}]}]}
